According to patent US20140288071A1, “INHIBITORS OF NOTUM […] AND METHODS OF THEIR USE” (priority 2011, published 2014):
Blank lines part the entries; values can stand above or below the compound they belong to.

Columns and labels:
[1] = target: T1, human notum pectinacetyltransferase (Homo sapiens, UniProt Q6P988); experiment: Reporter assay (CellSensor LEF/TCF-bla FreeStyle 293F cells, Wnt3a and notum conditioned media); assay type: cell-based
T1 construct: made in house; conditioned medium used
T1 sequence (Q6P988 20-496): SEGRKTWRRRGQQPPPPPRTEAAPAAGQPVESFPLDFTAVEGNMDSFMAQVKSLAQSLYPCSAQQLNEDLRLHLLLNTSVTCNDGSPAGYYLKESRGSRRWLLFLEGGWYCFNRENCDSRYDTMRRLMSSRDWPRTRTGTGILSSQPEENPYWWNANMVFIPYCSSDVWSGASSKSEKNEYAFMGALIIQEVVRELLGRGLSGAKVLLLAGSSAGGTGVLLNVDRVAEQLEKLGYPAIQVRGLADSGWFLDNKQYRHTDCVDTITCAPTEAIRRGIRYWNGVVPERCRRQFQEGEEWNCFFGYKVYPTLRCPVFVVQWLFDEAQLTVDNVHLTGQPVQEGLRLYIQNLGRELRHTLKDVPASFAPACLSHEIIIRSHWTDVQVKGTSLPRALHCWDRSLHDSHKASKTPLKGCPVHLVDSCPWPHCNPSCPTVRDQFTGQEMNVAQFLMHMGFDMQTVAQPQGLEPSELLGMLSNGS
Description: Plasmid containing human notum pectinacetyltransferase in pcDNA3.1(+) vector was transfected into HEK293 cells and clones were selecting by growing in presence of 400 ug/mL of G418. […] L cells overexpressing and secreting Wnt3a into the conditioned media were purchased from ATCC.
The assay protocol was as follows. […] The cell growth medium consisted of DMEM with 10% Dialyzed FBS, 5 μg/ml Blasticidin (Invitrogen, R210-01), 0.1 mM NEAA, 25 mM HEPES and 1×GPS. Cells were then trypsinized by first rinsing with PBS, followed by addition of 5 mL of trypsin and incubation of plates at room temperature for two minutes. A total of 10 mL of assay media (Opti-MEM, plus 0.5% dialyzed FBS, 0.1 mM NEAA, 1 mM sodium pyruvate, 10 mM HEPES, 1×GPS) was then added per 15 cm plate. Cells were counted and suspended at 0.75 million cells per mL. […] After incubation of cells at 37° C. for 3 hours, 10 μL of 30 mM LiCl in assay medium was added per well, followed by incubation at 37° C. for another 3 hours. […] Ten μL of the Wnt3a/notum pentinacetyltransferase mixture was then transferred from Greiner plates to each well of the 384-well plates containing the CellSensor cells. After incubation of cells overnight at 37° C., reactions were developed by addition of […] of 1×CCF4 (Invitrogen, Catalogue number K1085) to each well, covering the entire 384-well plate, and gentle rocking in the dark at room temperature for 3 hours.

[2] = system: F1 male hybrid (129×C57) mice; experiment: Midshaft femur cortical thickness by microCT in treated mice; assay type: in vivo; settings: for increase in midshaft femur cortical thickness: second study
Description: The compound was administered in the animals' diet. Four groups of mice were used: control (N=12); 25 mg/kg compound (N=9); 83 mg/kg compound (N=9); and an additional group wherein Li2CO3 was administered in the diet (0.1%) (N=9).
Midshaft femur cortical thickness was measured using a Scanco μCT40. […] For the Li2CO3 group, a decrease in cortical bone thickness of 2% (p=0.90) was observed. […]
Midshaft femur cortical thickness was measured by microCT (Scanco μCT40). […]

[3] = target: T1, human notum pectinacetyltransferase; experiment: Binding assay (OPTS esterase substrate, fluorimetric); assay type: biochemical; settings: OPTS substrate 5 μM
Description: Plasmid containing human notum pectinacetyltransferase in pcDNA3.1(+) vector was transfected into HEK293 cells and clones were selecting by growing in presence of 400 ug/mL of G418. Condition media from these cells was used for the assay.

[4] = system: Fischer 344 ovariectomized rats; experiment: Midshaft femur and tibia cortical thickness by microCT in sham and ovariectomized rats; assay type: in vivo; settings: target dose 30 mg/kg in diet, five weeks, ANOVA p=0.05 for treatment
From the text: The pharmacology of 2-((5-chloro-6-methylthieno[2,3-d]pyrimidin-4-yl)thio)acetic acid was studied in Fischer 344 ovariectomized rats. The rats underwent ovariectomies or sham surgery at 43 or 46 weeks of age, and treatment with the compound started at 37 or 40 weeks thereafter, at 83 weeks of age.
Four treatment groups were used: sham-surgery given control diet (N=14); sham-surgery given compound (N=12); OVX-surgery given control diet (N=14); and OVX-surgery given compound (N=12). The compound was dosed by incorporating it into the rats' diet: 0.46 grams of compound per kg of diet. The target dose was 30 mg/kg. Dosing occurred for five weeks.
Bone mass and architecture was determined by microCT, using a Scanco μCT40. […] The difference between the cortical bone thicknesses of the sham control and OVX control was −13%. Two-factor ANOVA values were: p<0.001 for OVX surgery; p=0.05 for treatment; and p=0.65 for interaction.
Two-factor ANOVA values were: p=0.79 for OVX surgery; p=0.05 for treatment; and p=0.52 for interaction.

EC50 [1]: < 1 µM
IC50 [3]: < 0.025 µM
Compound: Cc1c(Cl)sc2c(SCC(=O)O)ncnc12 [2-((6-chloro-7-methylthieno[3,2-d]pyrimidin-4-yl)thio)acetic acid]
increase in midshaft femur cortical bone thickness compared to control ([2]; first experiment, 10 mg/kg daily oral gavage, 25 days, starting at 54 weeks of age, p=0.06): 6%
increase in midshaft femur cortical bone thickness compared to control ([2]; first experiment, 100 mg/kg daily oral gavage, 25 days, starting at 54 weeks of age, p=0.03): 7%
increase in midshaft femur cortical bone thickness compared to control ([2]; second experiment, 34 mg/kg in diet, 18 days, starting at 8.1 weeks of age, p<0.01): 10%
increase in midshaft femur cortical bone thickness compared to control ([2]; second experiment, 34 mg/kg in diet, seven days, starting at 8.1 weeks of age, p=0.13): 6%

EC50 [1]: < 1 µM
IC50 [3]: < 0.025 µM
Compound: Cc1sc2ncnc(SCC(=O)O)c2c1Cl [2-((5-chloro-6-methylthieno[2,3-d]pyrimidin-4-yl)thio)acetic acid]
increase in midshaft femur cortical bone thickness ([4]; intact (sham) rats): 3%
increase in midshaft tibia cortical thickness ([4]; intact (sham) rats): 2%
increase in midshaft femur cortical bone thickness ([4]; ovariectomized rats): 5%
increase in midshaft tibia cortical thickness ([4]; ovariectomized rats): 5%

EC50 [1]: < 1 µM
IC50 [3]: < 0.025 µM
Compound: CC(C)c1sc2ncnc(SCC(=O)O)c2c1Cl [2-((5-chloro-6-isopropylthieno[2,3-d]pyrimidin-4-yl)thio)acetic acid]
increase in cortical bone thickness (midshaft femur) compared to control ([2]; 5 mg/kg twice daily oral gavage, 25 days, starting at 8.7 weeks of age, p=0.002): 6%
increase in cortical bone thickness (midshaft femur) compared to control ([2]; 10 mg/kg twice daily oral gavage, 25 days, starting at 8.7 weeks of age, p=0.007): 5%
increase in cortical bone thickness (midshaft femur) compared to control ([2]; 15 mg/kg twice daily oral gavage, 25 days, starting at 8.7 weeks of age, p=0.001): 6%

The remaining lines, values behind:

Compound: O=C(O)CSc1ncnc2c(C3CC3)c(Cl)sc12 [2-((6-chloro-7-cyclopropylthieno[3,2-d]pyrimidin-4-yl)thio)acetic acid]
increase in cortical bone thickness (midshaft femur) compared to control ([2]; 3 mg/kg daily oral gavage, 25 days, starting at 8.7 weeks of age, p=0.003): 7%
increase in cortical bone thickness (midshaft femur) compared to control ([2]; 10 mg/kg daily oral gavage, 25 days, starting at 8.7 weeks of age, p<0.001): 10%
increase in cortical bone thickness (midshaft femur) compared to control ([2]; 30 mg/kg daily oral gavage, 25 days, starting at 8.7 weeks of age, p<0.001): 13%

Compound: O=C([O-])[O-].[Li+].[Li+] [Li2CO3, reference compound]
decrease in cortical bone thickness (midshaft femur) compared to control ([2]; first study, 0.1% in diet, 25 days, p=0.90): 2%

Compound: Cc1sc2ncnc(SCC(=O)O)c2c1C [2-((5,6-dimethylthieno[2,3-d]pyrimidin-4-yl)thio)acetic acid]
increase in cortical bone thickness (midshaft femur) compared to control ([2]; first study, 25 mg/kg in diet, 25 days, starting at 10.7 weeks of age, p=0.04): 9%
increase in cortical bone thickness (midshaft femur) compared to control ([2]; first study, 83 mg/kg in diet, 25 days, starting at 10.7 weeks of age, p=0.07): 8%
increase in midshaft femur cortical thickness ([2]; 8 mg/kg in diet, 25 days, starting at 10.7 weeks of age, p=0.19): 4%
increase in midshaft femur cortical thickness ([2]; 24 mg/kg in diet, 25 days, starting at 10.7 weeks of age, p=0.05): 6%
